Test results taken from patent US9888689B2, “Compositions containing a pyripyropene insecticide and an adjuvant” (BASF SE, priority 2010, dated 2018).
Blank lines part the entries; values can stand above or below the molecule they belong to.

What was measured:
[1] = Stability of crystalline hydrate forms of compound of formula I; type: physicochemical
Description: As pointed out above, a further aspect of the present invention relates to the hydrate B of the compound of formula I. Form B is a non-stoichiometric hydrate of the compound of formula I. The typical water content is in the range from 7.5 to 9 wt % and in particular about 8.5 wt %, i.e. 8.5±0.2 wt %. The water content can be determined by thermo-gravimetric analysis (TGA).

[2] = system: larvae of Helicoverpa zea; conditions: cited from earlier work
[3] = system: Tenebrio molitor L; conditions: cited from earlier work
[4] = system: Plutella xylostella L larvae; conditions: cited from earlier work

Structure (SMILES): C[C@]1(COC(=O)C2CC2)[C@@H]2C[C@H](O)[C@@]3(C)Oc4cc(-c5cccnc5)oc(=O)c4[C@H](O)[C@@H]3[C@@]2(C)CC[C@@H]1OC(=O)C1CC1 [Form C]
- stability of the hydrate form ([1]; ambient conditions): stable at ambient conditions over weeks and month

- conversion of the hydrate form ([1]; dried at elevated temperatures, e.g. >50 °C): slowly converts into amorphous material
- stability of the hydrate form ([1]; room temperature, in contact with aqueous solvent or water or at high degrees of humidity, e.g. 90%): stable
- conversion of the hydrate form ([1]; when the mother liquor is removed or humidity is reduced): slowly converts into form C
Structure (SMILES): C[C@]1(COC(=O)C2CC2)[C@@H]2C[C@H](O)[C@@]3(C)Oc4cc(-c5cccnc5)oc(=O)c4[C@H](O)[C@@H]3[C@@]2(C)CC[C@@H]1OC(=O)C1CC1 [Form B]

Structure (SMILES): CC(=O)OC[C@@]1(C)[C@@H]2C[C@H](OC(C)=O)[C@@]3(C)Oc4cc(-c5cccnc5)oc(=O)c4[C@H](O)[C@@H]3[C@@]2(C)CC[C@@H]1OC(C)=O [Pyripyropene A]
- insecticidal activity [2]: insecticidal activity
- insecticidal activity [3]: insecticidal activity
- insecticidal activity [4]: insecticidal activity
